Assay results reported in EP2902035B1, “Cell-permeable peptide inhibitors of the JNK signal transduction pathway for use in the treatment of inflammatory eye diseases” (Xigen Inflammation Ltd., priority 2010, dated 2012).

Key:
[1] = tested on: Endotoxin-Induced Uveitis (EIU); assay: Scoring of Endotoxin-Induced Uveitis (EIU) by slit lamp; format: in vivo, Lewis rats; conditions: scored at 24 hours on a scale from 0 to 5, mean ± SEM
Method: For intravenous (IV) injection, 100 µL of saline (NaCl 0.9%) or the JNK-inhibitor (poly-)peptide of SEQ ID NO: 11 (20 µg/kg in saline) were injected in a tail vein using a 25G-needle connected on a 1 mL syringe (Becton Dickinson, France). For intravitreous (IVT) injection, 5 µL of saline or the JNK-inhibitor (poly-)peptide of SEQ ID NO: 11 (0.2 µg/injection in saline) were injected in both eyes using a 30G disposable needle (BD-microfine syringe, nm Médical, Asnière, France). The IV dose of 20 µg/kg (i.e. 3.5 µg/rat in rats weighing 175g) was chosen according to studies showing that the JNK-inhibitor (poly-)peptide of SEQ ID NO: 11 is active at very low doses in other models. For intravitreous injections, the inventors used the minimal dose used in direct ear application after acute noise trauma in patients. This corresponds to 5% of the dose injected intravenously. […]
In a first set of experiment, 70 rats were randomized into 14 experimental groups with 5 rats per group. […] Clinical ocular inflammation was recorded only at 24 hours (see Scoring of Endotoxin-Induced Uveitis (EIU) section). […]
Animals were examined by slit lamp at 24 hours, the clinical peak of the disease in our experiments. The intensity of clinical ocular inflammation was scored on a scale from 0 to 5 for each eye as described previously 10: grade (0) indicates no inflammation; grade (1) indicates the presence of a minimal iris and conjunctival vasodilation but without the observation of flare or cells in the anterior chamber (AC); grade (2) indicates the presence of moderate iris and conjunctival vessel dilation but without evident flare or cells in the AC; grade (3) indicates the presence of intense iris vessels dilation, flare and less than 10 cells per slit lamp field in the AC; grade (4) indicates the presence of more severe clinical signs than grade 3, with more than 10 cells in the AC with or without the formation of a hypopion; grade (5) indicates the presence of intense inflammatory reaction, fibrin formation in the AC and total seclusion of the pupil. […]

[2] = tested on: c-Jun phosphorylation (JNK pathway); assay: Western-Blot analysis of c-Jun phosphorylation in RPE/choroid in EIU; format: in vivo, Lewis rats; conditions: for relative band intensity for phospho c-Jun in comparison to tubulin (densitometry): EIU
Method: Retinas and RPE/choroid/sclera complexes were carefully dissected out on enucleated eyes, snap frozen and stored at -80°C until being used for RT-PCR and Western-Blot analyses.
Retinas and RPE/choroid/sclera complexes were also collected at 24 hours to analyze iNOS mRNA levels by RT-PCR and c-Jun phosphorylation state by Western-Blot. Tissues were collected only from eyes treated by IV (intravenous) injection of vehicle, IV injection of the JNK-inhibitor (poly-)peptide of SEQ ID NO: 11, IVT (intravitreal) injection of vehicle and IVT injection of the JNK-inhibitor (poly-)peptide of SEQ ID NO: 11 (n=2 eyes per condition collected from separate rats). Eyes were selected so that their EIU clinical score was representative of the mean of the experimental group they belong to, i.e 3 for eyes treated by IV and IVT injection of vehicle and 2 for eyes treated by IV or IVT injection of the JNK-inhibitor (poly-)peptide of SEQ ID NO: 11.
RPE/choroid/sclera complexes and neuroretinas (2 per experimental group) were snap frozen immediately after dissection and stored at -80°C until use. Tissues were homogenized in 500 µL of lysis buffer (MOPS SDS Running Buffer, Invitrogen, Cergy-Pontoise, France) supplemented with protease inhibitor cocktail (Roche Diagnostics, Meylan, France) (one tablet for 50 mL). After addition of LDS Sample Buffer (Invitrogen) and heating for 5 min at 100°C, equal amounts of proteins were subjected to electrophoresis in a NuPAGE 4-12% Bis-Tris gel (Invitrogen) using MOPS SDS Running Buffer. The bands obtained were then electrotransferred onto nitrocellulose membranes (Schleicher & Schuell BioScience, Dassel, Germany).
Western-blot analyses were carried out to analyze the effect of the JNK-inhibitor (poly-)peptide of SEQ ID NO: 11 on the three mitogen-activated protein kinase (MAPK) pathways. To analyze the JNK pathway, blots were sequentially incubated with a rabbit Phospho-c-Jun (Ser63) primary antibody (or Phospho-c-Jun (Ser73) antibody) and an anti-rabbit IgG HRP-linked secondary antibody according to the manufacturer's instruction (PhosphoPlus c-Jun (Ser63) II and c-Jun (Ser73) antibody kit (9260) purchased from Cell Signaling Technology (Ozyme, St Quentin Yvelines, France)). Bands were visualized using the ECL Western Blotting Detection Reagents Kit (Amersham Biosciences, Orsay, France). […] The relative band intensity for phospho c-Jun (Ser 63 or Ser73) was calculated in comparison to that for -tubulin after densitometry analysis (ImageJ software).

CC(C)C[C@@H](NC(=O)[C@@H](Cc1ccccc1)NC(=O)[C@H]1CCCN1C(=O)[C@@H](CCC(N)=O)NC(=O)[C@H](NC(=O)[C@H]1CCCN1C(=O)[C@@H](CCCNC(=N)N)NC(=O)[C@@H](CO)NC(=O)[C@@H](CCC(N)=O)NC(=O)[C@H](N)CC(=O)O)C(C)C)C(=O)N[C@H](CC(N)=O)C(=O)N[C@H](CC(C)C)C(=O)N[C@@H](C(=O)N[C@@H](C(=O)N1CCC[C@@H]1C(=O)N[C@H](CCCNC(=N)N)C(=O)N[C@H](CCCCN)C(=O)N1CCC[C@@H]1C(=O)N[C@H](CCCNC(=N)N)C(=O)N1CCC[C@@H]1C(=O)N1CCC[C@@H]1C(=O)N[C@H](CCCNC(=N)N)C(=O)N[C@H](CCCNC(=N)N)C(=O)N[C@H](CCCNC(=N)N)C(=O)N[C@H](CCC(N)=O)C(=O)N[C@H](CCCNC(=N)N)C(=O)N[C@H](CCCNC(=N)N)C(=O)N[C@H](CCCCN)C(=O)N[C@H](CCCCN)C(=O)N[C@H](CCCNC(=N)N)C(=O)NCC(=O)O)[C@H](C)O)[C@H](C)O [SEQ ID NO: 11]
EIU clinical scores ([1]; 20 µg/kg intravenous (IV) injection at LPS challenge): 2.0 ± 0.1 A.U. | EIU clinical scores ([1]; intravitreous (IVT) administration at LPS challenge (SEQ ID NO: 11: 0.2 µg/injection)): 2.2 ± 0.2 A.U. | Phosphorylation of c-Jun on Ser63 and Ser73 residues ([2]; RPE/ choroid extracts, 24 hours after intravenous or intravitreous injection): reduced | relative band intensity for phospho c-Jun in comparison to tubulin (densitometry) ([2]; RPE/ choroid, 24 hours after IV (20 µg/kg)): 0.28 ± 0.01 | relative band intensity for phospho c-Jun in comparison to tubulin (densitometry) ([2]; RPE/ choroid, 24 hours after IVT (0.2 µg/injection)): 0.35 ± 0.08 | decrease in c-Jun phosphorylation ([2]; RPE/ choroid, after IV or IVT administration, versus vehicle): approximately 3 fold
